Laboratory results reported in patent publication US4226877A, “Pyrazoles active in the central nervous system” (Abbott Laboratories, priority 1979, dated 1980).
Read-outs that look alike come from different tables or passages of the source.

Legend:
[1] = system: methamphetamine-induced hyperactivity; assay: Rat methamphetamine antagonism test; type: in vivo, Male, Long-Evans, black hooded rats; details: for ED50: Rattus norvegicus; for % Change From Placebo Control: methamphetamine 1 mg/kg i.p. one hour later
Description: The second test for identifying potential antipsychotic properties was the rat methamphetamine antagonism test.
[…] Three rats were tested at each dose level. Placebo controls received a volume dose of the 0.5% carboxymethylcellulose vehicle. One hour after drug administration, the animals received methamphetamine at an intraperitoneal dose of 1 mg/kg and were placed in individual test chambers equipped with photocells (Lehigh Valley, Model 1497). Antagonism of methamphetamine-induced hyperactivity was recorded as digital counts received from the photocells at one and two hour intervals.
The drug data were compared to placebo control values to identify statistically significant differences using a one-way analysis of variance computer program. ED50's were calculated by the method of Litchfield and Wilcoxin (J. Pharmacol. Exper. Therap.: 96:99, 1949).

[2] = system: brain level of homovanillic acid (HVA); assay: Effect of drug compounds on brain level of homovanillic acid (HVA) in rats; type: in vivo, male Long Evans rats; details: brains (minus cerebella) removed two or three hours later, control = 1
Description: In testing for the effectiveness of the present drug compounds on the brain level of homovanillic acid (HVA), the drugs were administered intraperitoneally to male Long Evans rats (Simonsen) usually as aqueous solutions but in certain cases as suspensions in 0.5% methocel in 0.9% saline. The standard testing dose was […] body weight. The test and control groups consisted of 3-5 and 5 animals, respectively. The analyses were performed on brains (minus cerebella) removed two or three hours later. In the analyses, standard extraction and fluorimetric methods were used.
Antipsychotic agents increase the synthesis and release of dopamine which is converted to HVA. The HVA level is therefore a measure of dopamine release.

[3] = oral, calculated by the method of Litchfield and Wilcoxin, read-out: ED50
[4] = Dose 0.15 (moles/kg body weight), intraperitoneal

SMILES | ED50 ([1]; po) [mg/kg] | % Change From Placebo Control ([1]; oral dose 5 mg/kg) | % Change From Placebo Control ([1]; oral dose 10 mg/kg) [%] | % Change From Placebo Control ([1]; oral dose 20 mg/kg) | HVA Level; Compound : Control Ratio ([2]; Dose 0.03, intraperitoneal) | ED50 [1, 3] [mg/kg] | % Change From Placebo Control ([1]; oral dose 80 mg/kg) [%] | HVA Level; Compound : Control Ratio [2, 4]
CN(C)CCCN1c2ccccc2Sc2ccc(Cl)cc21 [Chlorpromazine, reference compound] | 15 | +10% | -40 | -74% | 3.9 | – | – | –
CCN1CCCC1CNC(=O)c1c(C)nn(C(C)C)c1O (centres unmarked) [IV] | – | +35% | – | +28% | – | > 80 | -18 | 2.2
CCN1CCCC1CNC(=O)c1c(C)nn(C)c1OC (centres unmarked) [I, N-[(1-ethyl-2-pyrrolidinyl)methyl]-5-methoxy-1,3-dimethylpyrazole-4-carboxamide] | – | -9% | – | -35% | – | 44 | -60 | 4.0
CCN1CCCC1CNC(=O)c1c(C(C)C)nn(C)c1OC (centres unmarked) [III, N[(1-Ethyl-2-pyrrolidinyl)methyl]-3-isopropyl-5-methoxy-1-methylpyrazole 4-carboxamide] | – | -31% | – | -33% | – | > 80 | -12 | 1.0
CCN1CCCC1CNC(=O)c1c(C)nn(C(C)C)c1OC (centres unmarked) [II, N-[(1-Ethyl-2-pyrrolidinyl)methyl]-1-isopropyl-5-methoxy-3-methylpyrazole-4-carboxamide] | – | -16% | – | -13% | – | > 80 | -16 | 1.8
CCN1CCCC1CNC(=O)c1cc(S(N)(=O)=O)ccc1OC (centres unmarked) [Sulpiride, reference compound] | – | +27% | – | +21% | – | > 80 | 0 | 3.0
CCN1CCCC1CNC(=O)c1c(C)nn(-c2ccccc2)c1OC (centres unmarked) [V, N-[(1-Ethyl-2-pyrrolidinyl)methyl]-5-methoxy-3-methyl-1-phenyl pyrazole-4-carboxamide] | – | -23% | – | -32% | – | 23.5 | -81 | 3.3
